# Like-named read-outs stand apart in the source and are kept apart here. Starred links: 1 amine or outer side, 2 acyl side, 3 side chain; linkers in the order of their positions; H or OH if unused. Positions of bridges follow the written chain, without caps; N, C: chain ends. Non-standard residues stand in square brackets, D forms with d. Groups on a side chain read outwards from the residue. Chains are numbered I, II in the order given. *: point of attachment. C20 diacid = O=C(O)CCCCCCCCCCCCCCCCCCC(=O)*; C18 diacid = O=C(O)CCCCCCCCCCCCCCCCC(=O)*; γGlu = O=C(O)[C@H](CCC(=O)[*:2])N[*:1]; εLys = N[C@@H](CCCCN[*:1])C(=O)[*:2]; NMeQ = CN[C@@H](CCC(N)=O)C(=O)O; Tle = CC(C)(C)[C@H](N)C(=O)O; AEEA = NCCOCCOCC(=O)O; Aib = CC(C)(N)C(=O)O
# What was measured:
# [1] = molecular target: T1, hGLP1R (Homo sapiens, UniProt P43220); test: hGLP1R CreLuc reporter gene assay in 0.5% and 100% plasma; format: cell-based; conditions: CreLuc reporter gene assay
# T1 construct: expressed in transfected cells; host or cells: HEK-293 cells carrying a CRE-luciferase reporter gene
# Description: (§1) Example 1: hGLPR/hGIPR/hNPY2R CreLuc Assay in 0.5% and 100% Plasma
# (§2) CHO and HEK-293 recombinant cell lines express a luciferase reporter gene under control of the cAMP responsive element (CRE). As a second recombinant protein the GLP-1 and NPY2 receptors were expressed in the reporter gene HEK cells, and the GIP receptor was expressed in the reporter gene CHO cells, respectively. Stimulation of these recombinant cells with an agonist leads to an increase of intracellular cAMP levels. In the presence of cAMP, the transcription factor CRE binding protein (CREB) binds to the CRE and to the CREB binding protein (CBP), which leads to transcription of the luciferase reporter gene. Peptides upon serial-dilution in 100% DMSO were transferred into 384-well assay plates with 5 μl pre-dispensed assay buffer (1×HBSS, 20 mM HEPES, pH7.4 supplemented with 0.5% human plasma) using acoustic dispensing on a Labcyte ECHO. Cryo-preserved transgenic reporter gene cells were thawed in assay buffer. 20 μl (10.000 cells/well) were added to the plate with the peptides and incubated for 4 hours at 37° C. in a humidified incubator. Following incubation, assay plates are equilibrated to room temperature, followed by addition of 25 μl of Bright-GIo™ Luciferase reagent, incubation at room temperature for 10 minutes and analysis of luminescence (Envision Reader). Concentration response evaluation of compounds was performed with 8 concentrations of peptides (covering four decades). EC50 values were calculated by non-linear regression using sigmoid concentration-response with variable slope. The same assays were run in the presence of 100% plasma with no additional buffer constituents.
# [2] = molecular target: T2, hGIPR (Homo sapiens, UniProt P48546); test: hGIPR CreLuc reporter gene assay in 0.5% and 100% plasma; format: cell-based; conditions: CreLuc reporter gene assay
# T2 construct: expressed in transfected cells; host or cells: CHO cells carrying a CRE-luciferase reporter gene
# T2 sequence (P48546 22-466): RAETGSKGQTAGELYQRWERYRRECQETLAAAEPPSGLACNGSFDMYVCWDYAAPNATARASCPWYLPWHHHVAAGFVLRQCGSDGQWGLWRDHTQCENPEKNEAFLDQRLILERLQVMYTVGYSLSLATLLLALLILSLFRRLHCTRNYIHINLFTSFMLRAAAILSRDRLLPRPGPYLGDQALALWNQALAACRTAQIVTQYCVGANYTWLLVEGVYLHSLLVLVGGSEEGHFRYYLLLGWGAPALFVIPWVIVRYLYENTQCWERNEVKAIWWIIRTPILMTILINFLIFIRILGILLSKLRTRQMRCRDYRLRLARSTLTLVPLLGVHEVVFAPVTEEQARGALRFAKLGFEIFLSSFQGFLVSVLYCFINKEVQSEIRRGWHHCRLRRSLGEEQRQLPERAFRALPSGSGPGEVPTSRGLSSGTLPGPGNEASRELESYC
# Description: as §1, §2
# [3] = 0.5% human plasma, read-out: hGLP1R 0.5% hP
# [4] = 100% human plasma, read-out: hGLP1R 100% hP
# [5] = 0.5% human plasma, read-out: hGIPR 0.5% hP
# [6] = 100% human plasma, read-out: hGIPR 100% hP
# T1 sequence (P43220 24-463): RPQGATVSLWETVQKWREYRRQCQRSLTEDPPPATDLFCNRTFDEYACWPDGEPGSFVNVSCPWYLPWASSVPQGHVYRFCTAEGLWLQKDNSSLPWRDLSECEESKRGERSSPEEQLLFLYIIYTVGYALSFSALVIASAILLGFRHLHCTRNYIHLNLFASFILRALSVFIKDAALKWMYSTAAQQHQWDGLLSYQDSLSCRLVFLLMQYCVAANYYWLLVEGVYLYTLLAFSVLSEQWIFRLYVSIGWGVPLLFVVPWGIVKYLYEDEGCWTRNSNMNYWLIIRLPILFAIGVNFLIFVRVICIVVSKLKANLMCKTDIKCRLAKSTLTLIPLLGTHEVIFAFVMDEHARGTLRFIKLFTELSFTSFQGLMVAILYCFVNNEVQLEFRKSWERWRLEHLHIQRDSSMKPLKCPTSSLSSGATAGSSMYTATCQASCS
substance,measurement,setting,value
"H-Y[Aib]EGTFTSDYSI[Aib]LEKQAQ[Aib]AFVEWLIK([εLys-γGlu-γGlu-γGlu-γGlu-γGlu-γGlu-C20 diacid])GGPSSGADLRHYLNWLTRQRY-NH2 [Compound 72, Y-Aib-E-G-T-F-T-S-D-Y-S-I-Aib-L-E-K-Q-A-Q-Aib-A-F-V-E-W-L-I-K(1,3)-GGPSSGADLRHYLNWLTRQRY-NH2.C20DA-gGlu-gGlu-gGlu-gGlu-gGlu-gGlu-eLys(1,2)]",EC50,[1]; [3],0.15 nM
same,EC50,[1]; [4],2.87 nM
same,EC50,[2]; [5],0.29 nM
"H-Y[Aib]EGTFTSDYSI[Aib]LEKQAQ[Aib]AFVQWLIK([εLys-γGlu-γGlu-γGlu-γGlu-γGlu-γGlu-C20 diacid])GGPSEGASLRHYYNWLTR[NMeQ]RY-NH2 [Compound 115, Y-Aib-E-G-T-F-T-S-D-Y-S-I-Aib-L-E-K-Q-A-Q-Aib-A-F-V-Q-W-L-I-K(1,3)-G-G-P-S-E-G-A-S-L-R-H-Y-Y-N-W-L-T-R-NMeQ-R-Y-NH2.C20DA-gGlu-gGlu-gGlu-gGlu-gGlu-gGlu-eLys(1,2)]",EC50,[1]; [3],0.12 nM
same,EC50,[2]; [5],0.51 nM
"H-Y[Aib]EGTFTSDYSI[Aib]LEKQAQ[Aib]AFVQWLIK([γGlu-γGlu-γGlu-γGlu-C18 diacid])GGPSEGASLRHYYNWLTRQRY-NH2 [Compound 268, Y-Aib-E-G-T-F-T-S-D-Y-S-I-Aib-L-E-K-Q-A-Q-Aib-A-F-V-Q-W-L-I-K(1,3)-GGPSEGASLRHYYNWLTRQRY-NH2.C18DA-gGlu-gGlu-gGlu-gGlu(1,2)]",EC50,[1]; [3],0.08 nM
same,EC50,[2]; [5],0.17 nM
same,EC50,[2]; [6],1.01 nM
"H-Y[Aib]EGTFTSDYSI[Aib]LEKQAQ[Aib]AFVQWLIK([AEEA-AEEA-γGlu-γGlu-γGlu-γGlu-C20 diacid])GGPSEGASLRHYYNWLTRQRY-NH2 [Compound 269, Y-Aib-E-G-T-F-T-S-D-Y-S-I-Aib-L-E-K-Q-A-Q-Aib-A-F-V-Q-W-L-I-K(1,3)-GGPSEGASLRHYYNWLTRQRY-NH2.C20DA-gGlu-gGlu-gGlu-gGlu-OEG-OEG(1,2)]",EC50,[1]; [3],0.14 nM
same,EC50,[1]; [4],3.86 nM
same,EC50,[2]; [5],0.46 nM
same,EC50,[2]; [6],1.23 nM
"H-Y[Aib]EGTFTSDYSI[Aib]LEKQAQ[Aib]AFVEWLIK([εLys-γGlu-γGlu-γGlu-γGlu-γGlu-γGlu-C20 diacid])GGPRSGASLRHYYNWLTRQRY-NH2 [Compound 168, Y-Aib-E-G-T-F-T-S-D-Y-S-I-Aib-L-E-K-Q-A-Q-Aib-A-F-V-E-W-L-I-K(1,3)-GGPRSGASLRHYYNWLTRQRY-NH2.C20DA-gGlu-gGlu-gGlu-gGlu-gGlu-gGlu-eLys(1,2)]",EC50,[1]; [3],0.11 nM
same,EC50,[2]; [5],0.2 nM
same,EC50,[2]; [6],1.5 nM
"H-Y[Aib]EGTFTSDYSI[Aib]LEKQAQ[Aib]AFVQWLIK([εLys-γGlu-γGlu-γGlu-γGlu-γGlu-γGlu-C20 diacid])GGPRYYASLRHYYNWLTRQRY-NH2 [Compound 14, Y-Aib-E-G-T-F-T-S-D-Y-S-I-Aib-L-E-K-Q-A-Q-Aib-A-F-V-Q-W-L-I-K(1,3)-GGPRYYASLRHYYNWLTRQRY-NH2.C20DA-gGlu-gGlu-gGlu-gGlu-gGlu-gGlu-eLys(1,2)]",EC50,[1]; [3],0.4 nM
same,EC50,[2]; [5],0.71 nM
"H-Y[Aib]EGTFTSDYSI[Aib]LEKQAQ[Aib]AFVQWLIK([εLys-γGlu-γGlu-γGlu-γGlu-γGlu-γGlu-C20 diacid])GGPSSGVSLRHYYNWLTRQRY-NH2 [Compound 47, Y-Aib-E-G-T-F-T-S-D-Y-S-I-Aib-L-E-K-Q-A-Q-Aib-A-F-V-Q-W-L-I-K(1,3)-GGPSSGVSLRHYYNWLTRQRY-NH2.C20DA-gGlu-gGlu-gGlu-gGlu-gGlu-gGlu-eLys(1,2)]",EC50,[1]; [3],0.07 nM
same,EC50,[2]; [5],0.25 nM
same,EC50,[2]; [6],0.73 nM
"I: H-Y[Aib]EGTFTSDYSI[Aib]LEKQAQ[Aib]EFVQWLIKGGPSEGASLRHYYNWLTRQRY-NH2 / II: {C18 diacid}-EEEEEE (amide I:28-II:C) [Compound 179, Y-Aib-E-G-T-F-T-S-D-Y-S-I-Aib-L-E-K-Q-A-Q-Aib-E-F-V-Q-W-L-I-K(1,3)-GGPSEGASLRHYYNWLTRQRY-NH2.C18DA-E-E-E-E-E-E(1,2)]",EC50,[1]; [3],0.22 nM
same,EC50,[2]; [5],0.38 nM
"H-Y[Aib]EGTFTSDYSI[Aib]LEKQAQ[Aib]EFVEWLIK([AEEA-γGlu-γGlu-γGlu-C18 diacid])GGPSEGASLRHYYNWLTRQRY-NH2 [Compound 274, Y-Aib-E-G-T-F-T-S-D-Y-S-I-Aib-L-E-K-Q-A-Q-Aib-E-F-V-E-W-L-I-K(1,3)-GGPSEGASLRHYYNWLTRQRY-NH2.C18DA-gGlu-gGlu-gGlu-OEG(1,2)]",EC50,[1]; [3],0.41 nM
same,EC50,[2]; [5],0.23 nM
"H-Y[Aib]EGTFTSDYSI[Aib]LEKQAQ[Aib]AFVEWLIK([εLys-γGlu-γGlu-γGlu-γGlu-γGlu-γGlu-C20 diacid])GGPSSGASLRHYYN[Aib]LTRQRY-NH2 [Compound 218, Y-Aib-E-G-T-F-T-S-D-Y-S-I-Aib-L-E-K-Q-A-Q-Aib-A-F-V-E-W-L-I-K(1,3)-G-G-P-S-S-G-A-S-L-R-H-Y-Y-N-Aib-L-T-R-Q-R-Y-NH2.C20DA-gGlu-gGlu-gGlu-gGlu-gGlu-gGlu-eLys(1,2)]",EC50,[1]; [3],0.16 nM
same,EC50,[2]; [5],0.36 nM
same,EC50,[2]; [6],2.35 nM
"H-Y[Aib]EGTFTSDYSI[Aib]LEKQAQ[Aib]AFVEWLIK([εLys-γGlu-γGlu-γGlu-γGlu-γGlu-γGlu-C20 diacid])GGPSSGASLRHYYNW[Tle]TRQRY-NH2 [Compound 137, Y-Aib-E-G-T-F-T-S-D-Y-S-I-Aib-L-E-K-Q-A-Q-Aib-A-F-V-E-W-L-I-K(1,3)-G-G-P-S-S-G-A-S-L-R-H-Y-Y-N-W-Tle-T-R-Q-R-Y-NH2.C20DA-gGlu-gGlu-gGlu-gGlu-gGlu-gGlu-eLys(1,2)]",EC50,[1]; [3],0.12 nM
same,EC50,[2]; [5],0.28 nM
same,EC50,[2]; [6],1.5 nM
"H-Y[Aib]EGTFTSDYSI[Aib]LEKQAQ[Aib]AFVEWLIK([εLys-γGlu-γGlu-γGlu-γGlu-γGlu-γGlu-C20 diacid])GGPSSGASLRHYYNLLTRQRY-NH2 [Compound 195, Y-Aib-E-G-T-F-T-S-D-Y-S-I-Aib-L-E-K-Q-A-Q-Aib-A-F-V-E-W-L-I-K(1,3)-GGPSSGASLRHYYNLLTRQRY-NH2.C20DA-gGlu-gGlu-gGlu-gGlu-gGlu-gGlu-eLys(1,2)]",EC50,[1]; [3],0.13 nM
same,EC50,[2]; [5],0.25 nM
same,EC50,[2]; [6],1.42 nM
"H-Y[Aib]EGTFTSDYSI[Aib]LEKEKQ[Aib]AFVEWLIK([εLys-γGlu-γGlu-γGlu-γGlu-γGlu-γGlu-C20 diacid])GGPSSGASLRHYYNWLTRQRY-NH2 [Compound 69, Y-Aib-E-G-T-F-T-S-D-Y-S-I-Aib-L-E-K-E-K-Q-Aib-A-F-V-E-W-L-I-K(1,3)-GGPSSGASLRHYYNWLTRQRY-NH2.C20DA-gGlu-gGlu-gGlu-gGlu-gGlu-gGlu-eLys(1,2)]",EC50,[1]; [3],1.48 nM
same,EC50,[2]; [5],0.8 nM
"H-Y[Aib]EGTFTSDYSI[Aib]LEKQAQ[Aib]EFVQWLIK([AEEA-AEEA-Glu-Glu-Glu-C18 diacid])GGPSEGASLRHYYNWLTRQRY-NH2 [Compound 157, Y-Aib-E-G-T-F-T-S-D-Y-S-I-Aib-L-E-K-Q-A-Q-Aib-E-F-V-Q-W-L-I-K(1,3)-GGPSEGASLRHYYNWLTRQRY-NH2.C18DA-E-E-E-OEG-OEG(1,2)]",EC50,[1]; [3],0.35 nM
same,EC50,[2]; [5],0.38 nM
same,EC50,[2]; [6],1.58 nM
"H-Y[Aib]EGTFTSDYSI[Aib]LEKQAQ[Aib]AFVQWLIK([εLys-γGlu-γGlu-γGlu-γGlu-γGlu-γGlu-C20 diacid])GGPESGASLRHYYNWLTRQRY-NH2 [Compound 37, Y-Aib-E-G-T-F-T-S-D-Y-S-I-Aib-L-E-K-Q-A-Q-Aib-A-F-V-Q-W-L-I-K(1,3)-GGPESGASLRHYYNWLTRQRY-NH2.C20DA-gGlu-gGlu-gGlu-gGlu-gGlu-gGlu-eLys(1,2)]",EC50,[1]; [3],0.11 nM
same,EC50,[2]; [5],0.24 nM
same,EC50,[2]; [6],1.44 nM
"H-Y[Aib]EGTFTSDYSI[Aib]LEKQAQ[Aib]AFVEWLIK([γGlu-γGlu-γGlu-γGlu-γGlu-γGlu-C20 diacid])GGPSSGASLRHYYNWLTRQRY-NH2 [Compound 235, Y-Aib-E-G-T-F-T-S-D-Y-S-I-Aib-L-E-K-Q-A-Q-Aib-A-F-V-E-W-L-I-K(1,3)-GGPSSGASLRHYYNWLTRQRY-NH2.C20DA-gGlu-gGlu-gGlu-gGlu-gGlu-gGlu(1,2)]",EC50,[1]; [3],0.12 nM
same,EC50,[2]; [5],0.34 nM
same,EC50,[2]; [6],2.81 nM

# From patent US20240247080A1, “GLP1/GIP/NPY2 RECEPTOR TRIPLE AGONISTS” (Boehringer Ingelheim International GmbH, priority 2022, published 2024)
